Experimental data published in paper PMC8034185, “The rumen eukaryotome is a source of novel antimicrobial peptides with therapeutic potential” (BMC Microbiology, 2021).
≈ marks a conversion by molar mass, not a printed value. Each block holds one compound with its values, some of them ahead of it. Ends that are not written are not given here.

What was measured:
Assay in all cases: microbe, parasite or virus in culture
P. aeruginosa PAO1 = format: cell-based, Pseudomonas aeruginosa; settings: modified broth microdilution, cation-adjusted Mueller Hinton broth, inoculum 5 × 10^5 CFU/mL, 18 h, quadruplicate, highest concentration tested 512 μg/mL
Method: (§1) MICs against a range of clinically important Gram-positive and Gram-negative bacteria strains including methicillin-sensitive Staphylococcus aureus (MSSA) RN4220 epidemic methicillin-resistant S. aureus-15 (EMRSA-15), methicillin-resistant S. aureus USA300 (MRSA USA300), Bacillus cereus, Enterococcus faecalis JH2–2, Escherichia coli K12, Salmonella enterica serovar Typhimurium SL1344, P. aeruginosa PAO1, and hospital isolates of Acinetobacter baummannii were determined in quadruplicate by a modified microdilution broth method [64] with a final bacterial inoculum concentration of 5 × 10^5 CFU/mL utilised as the test organisms. Cation-adjusted Mueller Hinton (MH) broth was innoclated overnight with a single colony of the tested microorganisms, subsequently grown for 16–24 h with shaking at 225 rpm, and further diluted in the same broth to a final concentration of 5 × 10^5 CFU/mL. The bacterial suspension was added to sterile U-bottomed 96-well plates, and the peptides and control antibiotics to be tested were dissolved in sterile distilled water and serially diluted in the wells. The MICs were recorded as the lowest peptide concentration that inhibited growth after incubation for 18 h [65].

Sal. Tyhimurium (SL1344) = format: cell-based, Salmonella enterica serovar Typhimurium; settings: modified broth microdilution, cation-adjusted Mueller Hinton broth, inoculum 5 × 10^5 CFU/mL, 18 h, quadruplicate, highest concentration tested 512 μg/mL
Method: as §1

A. baumannii DSMZ 30007 = format: cell-based, Acinetobacter baumannii; settings: modified broth microdilution, cation-adjusted Mueller Hinton broth, inoculum 5 × 10^5 CFU/mL, 18 h, quadruplicate, highest concentration tested 512 μg/mL
Method: as §1

E. coli K12 = format: cell-based, Escherichia coli; settings: modified broth microdilution, cation-adjusted Mueller Hinton broth, inoculum 5 × 10^5 CFU/mL, 18 h, quadruplicate, highest concentration tested 512 μg/mL
Method: as §1

A. baumannii IMI/MER-R = format: cell-based, Acinetobacter baumannii; settings: imipenem/meropenem resistant, modified broth microdilution, cation-adjusted Mueller Hinton broth, inoculum 5 × 10^5 CFU/mL, 18 h, quadruplicate, highest concentration tested 512 μg/mL
Method: as §1

A. baumannii S27379 Sen = format: cell-based, Acinetobacter baumannii; settings: sensitive hospital isolate, modified broth microdilution, cation-adjusted Mueller Hinton broth, inoculum 5 × 10^5 CFU/mL, 18 h, quadruplicate, highest concentration tested 512 μg/mL
Method: as §1

[1] = system: A. baumannii S15785 OXA-23/0XA-50; format: cell-based, Acinetobacter baumannii; settings: modified broth microdilution, cation-adjusted Mueller Hinton broth, inoculum 5 × 10^5 CFU/mL, 18 h, quadruplicate, highest concentration tested 512 μg/mL
Method: as §1

P. aeruginosa H174 = format: cell-based, Pseudomonas aeruginosa; settings: modified broth microdilution, cation-adjusted Mueller Hinton broth, inoculum 5 × 10^5 CFU/mL, 18 h, quadruplicate, highest concentration tested 512 μg/mL
Method: as §1

S. aureus MSSA (RN4220) = format: cell-based, Staphylococcus aureus; settings: modified broth microdilution, cation-adjusted Mueller Hinton broth, inoculum 5 × 10^5 CFU/mL, 18 h, quadruplicate; highest concentration tested 512 μg/mL
Method: as §1

Ent. faecalis (JH2–2) = format: cell-based, Enterococcus faecalis; settings: modified broth microdilution, cation-adjusted Mueller Hinton broth, inoculum 5 × 10^5 CFU/mL, 18 h, quadruplicate; highest concentration tested 512 μg/mL
Method: as §1

S. aureus USA300 = format: cell-based, Staphylococcus aureus; settings: modified broth microdilution, cation-adjusted Mueller Hinton broth, inoculum 5 × 10^5 CFU/mL, 18 h, quadruplicate; highest concentration tested 512 μg/mL
Method: as §1

B. cereus = format: cell-based, Bacillus cereus; settings: modified broth microdilution, cation-adjusted Mueller Hinton broth, inoculum 5 × 10^5 CFU/mL, 18 h, quadruplicate; highest concentration tested 512 μg/mL
Method: as §1

S. aureus EMRSA-15 = format: cell-based, Staphylococcus aureus; settings: modified broth microdilution, cation-adjusted Mueller Hinton broth, inoculum 5 × 10^5 CFU/mL, 18 h, quadruplicate; highest concentration tested 512 μg/mL
Method: as §1

S. aureus ATCC 33591 = format: cell-based, Staphylococcus aureus; settings: modified broth microdilution, cation-adjusted Mueller Hinton broth, inoculum 5 × 10^5 CFU/mL, 18 h, quadruplicate; highest concentration tested 512 μg/mL
Method: as §1

MIC (P. aeruginosa PAO1; Pseudomonas aeruginosa, PAO1, read-out: Minimum Inhibitory Concentration, P. aeruginosa PAO1): 0.06 µg/mL (≈ 0.166 µM) | MIC (Sal. Tyhimurium (SL1344); Salmonella enterica, read-out: Minimum Inhibitory Concentration, Sal. Tyhimurium): 0.12 µg/mL (≈ 0.332 µM) | MIC (A. baumannii DSMZ 30007; Acinetobacter baumannii, DSMZ30007, read-out: Minimum Inhibitory Concentration, A. baumannii DSMZ 30007): 0.25 µg/mL (≈ 0.692 µM) | MIC (E. coli K12; Escherichia coli, K12, read-out: Minimum Inhibitory Concentration, E. coli K12): 0.03 µg/mL (≈ 0.083 µM) | MIC (A. baumannii IMI/MER-R; Acinetobacter baumannii, read-out: Minimum Inhibitory Concentration, A. baumannii IMI/MER-R): 256 µg/mL (≈ 708 µM) | MIC (A. baumannii S27379 Sen; Acinetobacter baumannii, S27379SEN, read-out: Minimum Inhibitory Concentration, A. baumannii S27379 Sen): 0.12 µg/mL (≈ 0.332 µM) | MIC ([1]; Acinetobacter baumannii, read-out: Minimum Inhibitory Concentration, A. baumannii S15785 OXA-23/0XA-50): > 512 µg/mL | MIC (P. aeruginosa H174; Pseudomonas aeruginosa, H174, read-out: Minimum Inhibitory Concentration, P. aeruginosa H174): 0.5 µg/mL (≈ 1.38 µM)
Compound: C[C@H]1COc2c(N3CCN(C)CC3)c(F)cc3c(=O)c(C(=O)O)cn1c23 [Levofloxacin]

Compound: KGLTVKFKVKN [Lub_376]
Minimum Inhibitory Concentration, S. aureus MSSA (S. aureus MSSA (RN4220)): > 512 µg/mL | Minimum Inhibitory Concentration, P. aeruginosa PAO1 (P. aeruginosa PAO1): > 512 µg/mL | Minimum Inhibitory Concentration, Ent. faecalis (Ent. faecalis (JH2–2)): > 512 µg/mL | Minimum Inhibitory Concentration, Sal. Tyhimurium (Sal. Tyhimurium (SL1344)): > 512 µg/mL | Minimum Inhibitory Concentration, S. aureus USA300 (S. aureus USA300): > 512 µg/mL | Minimum Inhibitory Concentration, A. baumannii DSMZ 30007 (A. baumannii DSMZ 30007): > 512 µg/mL | Minimum Inhibitory Concentration, B. cereus (B. cereus): > 512 µg/mL | Minimum Inhibitory Concentration, E. coli K12 (E. coli K12): > 512 µg/mL | Minimum Inhibitory Concentration, A. baumannii IMI/MER-R (A. baumannii IMI/MER-R): > 512 µg/mL | Minimum Inhibitory Concentration, A. baumannii S27379 Sen (A. baumannii S27379 Sen): > 512 µg/mL | Minimum Inhibitory Concentration, S. aureus EMRSA-15 (S. aureus EMRSA-15): > 512 µg/mL | Minimum Inhibitory Concentration, A. baumannii S15785 OXA-23/0XA-50 [1]: > 512 µg/mL | Minimum Inhibitory Concentration, P. aeruginosa H174 (P. aeruginosa H174): > 512 µg/mL | Minimum Inhibitory Concentration, S. aureus ATCC 33591 (S. aureus ATCC 33591): > 512 µg/mL
